In patent US20250352550A1, “SUBSTITUTED FUROPYRIDINES FOR THERAPEUTIC USE” (MASARYKOVA UNIVERZITA, priority 2022, published 2025) one finds IC50 data, which are given here for 16 molecules.

pIC50: −log10 of the molar value.

This test addresses T1, FLT3 (Homo sapiens, UniProt P36888).
T1 construct: purchased Reaction Biology
T1 sequence (P36888 27-993): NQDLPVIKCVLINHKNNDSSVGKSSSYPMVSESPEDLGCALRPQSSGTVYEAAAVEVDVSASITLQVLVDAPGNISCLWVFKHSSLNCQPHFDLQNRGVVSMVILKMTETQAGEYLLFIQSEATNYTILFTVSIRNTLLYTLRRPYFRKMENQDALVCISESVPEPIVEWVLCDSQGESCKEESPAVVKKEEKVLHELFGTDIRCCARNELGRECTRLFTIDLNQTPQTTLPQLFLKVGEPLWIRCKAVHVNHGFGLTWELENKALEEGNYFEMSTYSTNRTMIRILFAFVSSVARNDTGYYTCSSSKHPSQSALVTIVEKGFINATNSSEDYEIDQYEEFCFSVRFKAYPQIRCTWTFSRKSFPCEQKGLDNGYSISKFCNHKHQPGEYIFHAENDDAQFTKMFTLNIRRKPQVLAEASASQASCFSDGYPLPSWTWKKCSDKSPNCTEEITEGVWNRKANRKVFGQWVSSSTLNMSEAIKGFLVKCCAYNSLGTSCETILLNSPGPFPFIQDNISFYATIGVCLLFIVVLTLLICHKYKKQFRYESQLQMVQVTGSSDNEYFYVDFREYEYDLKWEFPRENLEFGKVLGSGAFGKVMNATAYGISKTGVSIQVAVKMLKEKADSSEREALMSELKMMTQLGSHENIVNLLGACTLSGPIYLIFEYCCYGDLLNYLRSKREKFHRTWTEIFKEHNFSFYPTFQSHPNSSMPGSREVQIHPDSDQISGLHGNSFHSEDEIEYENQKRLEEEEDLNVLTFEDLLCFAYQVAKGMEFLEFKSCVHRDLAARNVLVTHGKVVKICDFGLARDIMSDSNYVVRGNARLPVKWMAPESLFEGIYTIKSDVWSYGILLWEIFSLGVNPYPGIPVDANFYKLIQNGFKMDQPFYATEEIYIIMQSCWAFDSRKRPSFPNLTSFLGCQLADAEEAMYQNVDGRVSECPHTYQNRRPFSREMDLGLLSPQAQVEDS
In words: HotSpot radiometric kinase assay (Reaction Biology), FLT3. Format: biochemical. The conditions noted are these: 4 nM kinase, substrate ABLtide 20 μM, 33P-ATP, 120 minutes at room temperature. How it is done:
The compounds were profiled in the HotSpot radiometric assays (Reaction Biology).
Briefly, • 1. Substrate indicated in Table 1 was dissolved in freshly prepared reaction buffer (20 mM HEPES (pH 7.5), 10 mM MgCl2, 1 mM EGTA, 0.01% Brij35, 0.02 mg/ml BSA, 0.1 mM Na3VO4, 2 mM DTT, 1% DMSO) at the concentration indicated in Table 1. • 2. Corresponding kinase (concentration indicated in Table 1) was added and the mixture was gently mixed. • 3. Tested compound dissolved in DMSO was added into the kinase reaction mixture. • 4. ^33P-ATP (specific activity 0.01 μCi/μL final) was added into the reaction mixture to initiate the reaction. • 5. The kinase reaction was incubated for 120 minutes at room temperature. • 6. Reaction mixture was spotted onto P81 ion exchange paper (Whatman K 3698-915). • 7. The filters were extensively washed with […]. • 7. The radioactive phosphorylated substrate remaining on the filter paper was measured.
Kinase activity data were expressed as the percent remaining kinase activity in tested samples compared to the vehicle (DMSO) reactions. IC50 values and curve fits were obtained using Prism4 Software (GraphPad).
Table 2 summarizes the inhibitory activities of indicated compounds tested in the in vitro kinase assays described above.
Take `NC(=O)Nc1cccc(-c2coc3cc(-c4ccccc4)cnc23)c1` [1-(3-(6-phenylfuro[3,2-b]pyridin-3-yl)phenyl)urea]: the negative-log IC50 (pIC50) (commonly the IC50 on a negative log10 scale, so that one unit is a factor of ten) is 7.34.
In turn, `Cc1cc(-c2coc3cc(-c4ccc(N5CCNCC5)cc4)cnc23)cc(C)n1` [Preparative Example 8, 3-(2,6-dimethylpyridin-4-yl)-6-(4-(piperazin-1-yl)phenyl)furo[3,2-b]pyridine] had a pIC50 of 6.55.
Consider `c1ccc(-c2cnc3c(-c4ccncc4)coc3c2)cc1` [Preparative Example 22, 6-phenyl-3-(pyridin-4-yl)furo[3,2-b]pyridine], for which the negative logarithm of the IC50 (pIC50) is 6.74.
With `c1cc(-c2coc3cc(-c4ccc(N5CCOCC5)nc4)cnc23)ccn1` [Preparative Example 23, 6-(6-morpholinopyridin-3-yl)-3-(pyridin-4-yl)furo[3,2-b]pyridine], the pIC50 was 7.00.
Then `Nc1ccc(-c2cnc3c(-c4ccncc4)coc3c2)cc1` [Preparative Example 47, 4-(3-(pyridin-4-yl)furo[3,2-b]pyridin-6-yl)aniline], with 7.05; and `c1cc(-c2coc3cc(-c4ccc(N5CCCCC5)nc4)cnc23)ccn1` [Preparative Example 48, 6-(6-(piperidin-1-yl)pyridin-3-yl)-3-(pyridin-4-yl)furo[3,2-b]pyridine], with 6.87; and `CC(C)c1ccc(-c2coc3cc(-c4ccc(N5CCNCC5)cc4)cnc23)cc1` [Preparative Example 67, 3-(4-isopropylphenyl)-6-(4-(piperazin-1-yl)phenyl)furo[3,2-b]pyridine], with 6.22.
Then `Cc1nc2c(-c3ccncc3)coc2cc1-c1ccc(N2CCN(C)CC2)cc1` [Preparative Example 80, 5-methyl-6-(4-(4-methylpiperazin-1-yl)phenyl)-3-(pyridin-4-yl)furo[3,2-b]pyridine], with 6.86.
As to `c1ccc(Nc2cnc3c(-c4ccncc4)coc3c2)cc1` [Preparative Example 84, N-phenyl-3-(pyridin-4-yl)furo[3,2-b]pyridin-6-amine], the pIC50 is 6.86.
Then `CN(C)CCN(C)c1ccc(Nc2cnc3c(-c4ccncc4)coc3c2)cc1` [Preparative Example 98, N^1-(2-(dimethylamino)ethyl)-N^1-methyl-N^4-(3-(pyridin-4-yl)furo[3,2-b]pyridin-6-yl)benzene-1,4-diamine], with 6.91.
Then `Cc1ccc(NC(=O)c2cccc(-c3coc4cc(-c5ccc(N6CCNCC6)cc5)cnc34)c2)cc1` [Preparative Example 119, 3-(6-(4-(piperazin-1-yl)phenyl)furo[3,2-b]pyridin-3-yl)-N-(p-tolyl)benzamide], with 6.10; and `O=S(=O)(NCc1ccccc1)c1cccc(-c2coc3cc(-c4ccc(N5CCNCC5)cc4)cnc23)c1` [Preparative Example 122, N-benzyl-3-(6-(4-(piperazin-1-yl)phenyl)furo[3,2-b]pyridin-3-yl)benzenesulfonamide], with 6.86.
`c1ncc(-c2coc3cc(-c4ccc(N5CCNCC5)cc4)cnc23)cn1` [Preparative Example 206, 5-{6-[4-(piperazin-1-yl)phenyl]furo[3,2-b]pyridin-3-yl}pyrimidine] showed a pIC50 of 6.69.
As for `CN1CCN(c2ccc(-c3cnc4c(-c5cccc(C(N)=O)c5F)coc4c3)cc2)CC1` [Preparative Example 214, 2-fluoro-3-(6-(4-(4-methylpiperazin-1-yl)phenyl)furo[3,2-b]pyridin-3-yl)benzamide], the figure is 6.30.
For `CN1CCN(c2ccc(-c3cnc4c(-c5ccc(CC(N)=O)cc5)coc4c3)cc2)CC1` [Preparative Example 236, 2-(4-(6-(4-(4-methylpiperazin-1-yl)phenyl)furo[3,2-b]pyridin-3-yl)phenyl)acetamide], the pIC50 was 7.27.
As for `CN1CCN(c2ccc(-c3cnc4c(-c5ccc(NC(N)=O)cc5)coc4c3)cc2)CC1` [Preparative Example 251, (4-{6-[4-(4-methylpiperazin-1-yl)phenyl]furo[3,2-b]pyridin-3-yl}phenyl)urea], the figure is 6.95.
